Measurements from publication PMC3973950, “Synthesis of 5-arylidine amino-1,3,4-thiadiazol-2-[(N-substituted benzyol)]sulphonamides endowed with potent antioxidants and anticancer activity induces growth inhibition in HEK293, BT474 and NCI-H226 cells” (Medicinal Chemistry Research, 2013).

What was measured:
[1] = In vitro cytotoxicity by MTT assay, HEK 293; type: cell-based, human; details: human, HEK 293 cells, read-out: % cytotoxicity (100 − % cell survival) of HEK 293 cell line
Summary of the method: (§1)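 Monolayers seeded at […] (about 10,000 per well) were treated after 24 h with the synthesized compounds and incubated three days. Viability was taken from MTT reduction, with formazan measured at 490 nm.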

[2] = test system: BT474 (breast cancer cell line); assay: In vitro cytotoxicity by MTT assay, BT474; type: cell-based; details: Homo sapiens, 72 h, read-out: % cytotoxicity (100 − % cell survival) of BT474 cell line; for cytotoxicity at 0.005 µM: BT-474, 0.005 μM; for cytotoxicity at 0.015 µM: BT-474, 0.015 μM; for cytotoxicity at 0.045 µM: BT-474, 0.045 μM; for cytotoxicity at 0.13 µM: BT-474, 0.13 μM; for cytotoxicity at 0.41 µM: BT-474, 0.41 μM; for cytotoxicity at 1.23 µM: BT-474, 1.23 μM; for cytotoxicity at 3.7 µM: BT-474, 3.7 μM; for cytotoxicity at 11.11 µM: BT-474, 11.11 μM; for cytotoxicity at 33.33 µM: BT-474, 33.33 μM; for cytotoxicity at 100 µM: BT-474, 100 μM
Summary of the method: as §1

[3] = In vitro cytotoxicity by MTT assay, NCI-H226; type: cell-based; details: human, NCI-H226 lung cancer cells, 0.015 μM, read-out: % Cytotoxicity (100 − % cell survival) of NCI-H226 cell line
Summary of the method: as §1

[4] = test system: NCI-H226 (lung cancer cell line); assay: In vitro cytotoxicity by MTT assay, NCI-H226; type: cell-based; details: Homo sapiens, 72 h, read-out: % Cytotoxicity (100 − % cell survival) of NCI-H226 cell line; for cytotoxicity at 0.005 µM: NCI-H226, 0.005 μM; for cytotoxicity at 0.045 µM: NCI-H226, 0.045 μM; for cytotoxicity at 0.13 µM: NCI-H226, 0.13 μM; for cytotoxicity at 0.41 µM: NCI-H226, 0.41 μM; for cytotoxicity at 1.23 µM: NCI-H226, 1.23 μM; for cytotoxicity at 3.7 µM: NCI-H226, 3.7 μM; for cytotoxicity at 11.11 µM: NCI-H226, 11.11 μM; for cytotoxicity at 33.33 µM: NCI-H226, 33.33 μM; for cytotoxicity at 100 µM: NCI-H226, 100 μM
Summary of the method: as §1

Nc1ccc(S(=O)(=O)Nc2nnc(S(=O)(=O)NC(=O)c3ccc([N+](=O)[O-])cc3)s2)cc1 [Compound 7e]
cytotoxicity at 72 h, 0.005 µM [1]: 26.9% | cytotoxicity at 72 h, 0.015 µM [1]: 29% | cytotoxicity at 72 h, 0.045 µM [1]: 30.2% | cytotoxicity at 72 h, 0.13 µM [1]: 32.1% | cytotoxicity at 72 h, 0.41 µM [1]: 34.7% | cytotoxicity at 72 h, 1.23 µM [1]: 35.5% | cytotoxicity at 72 h, 3.7 µM [1]: 36.4% | cytotoxicity at 72 h, 11.11 µM [1]: 38.1% | cytotoxicity at 72 h, 33.33 µM [1]: 38.8% | cytotoxicity at 72 h, 100 µM [1]: 39.8% | cytotoxicity at 0.005 µM [2]: 43.9% | cytotoxicity at 0.015 µM [2]: 44.2% | cytotoxicity at 0.045 µM [2]: 45.4% | cytotoxicity at 0.13 µM [2]: 46.3% | cytotoxicity at 0.41 µM [2]: 47.1% | cytotoxicity at 1.23 µM [2]: 47.6% | cytotoxicity at 3.7 µM [2]: 48.5% | cytotoxicity at 11.11 µM [2]: 49.1% | cytotoxicity at 33.33 µM [2]: 50.4% | cytotoxicity at 100 µM [2]: 51.2% | cytotoxicity at 72 h, 0.015 µM [3]: 30% | cytotoxicity at 0.005 µM [4]: 29% | cytotoxicity at 0.045 µM [4]: 30.5% | cytotoxicity at 0.13 µM [4]: 31.8% | cytotoxicity at 0.41 µM [4]: 33.5% | cytotoxicity at 1.23 µM [4]: 34.5% | cytotoxicity at 3.7 µM [4]: 34.9% | cytotoxicity at 11.11 µM [4]: 35.5% | cytotoxicity at 33.33 µM [4]: 35.8% | cytotoxicity at 100 µM [4]: 36%

Nc1ccc(S(=O)(=O)Nc2nnc(S(=O)(=O)NC(=O)c3ccccc3O)s2)cc1 [Compound 7d]
cytotoxicity at 72 h, 0.005 µM [1]: 18.9% | cytotoxicity at 72 h, 0.015 µM [1]: 19.9% | cytotoxicity at 72 h, 0.045 µM [1]: 20.3% | cytotoxicity at 72 h, 0.13 µM [1]: 22.2% | cytotoxicity at 72 h, 0.41 µM [1]: 24.1% | cytotoxicity at 72 h, 1.23 µM [1]: 25.3% | cytotoxicity at 72 h, 3.7 µM [1]: 26.6% | cytotoxicity at 72 h, 11.11 µM [1]: 27.2% | cytotoxicity at 72 h, 33.33 µM [1]: 29% | cytotoxicity at 72 h, 100 µM [1]: 29.6% | cytotoxicity at 0.005 µM [2]: 28.5% | cytotoxicity at 0.015 µM [2]: 29.3% | cytotoxicity at 0.045 µM [2]: 30.6% | cytotoxicity at 0.13 µM [2]: 31.9% | cytotoxicity at 0.41 µM [2]: 33.1% | cytotoxicity at 1.23 µM [2]: 34.4% | cytotoxicity at 3.7 µM [2]: 35.7% | cytotoxicity at 11.11 µM [2]: 36.1% | cytotoxicity at 33.33 µM [2]: 38% | cytotoxicity at 100 µM [2]: 38.9% | cytotoxicity at 72 h, 0.015 µM [3]: 34.1% | cytotoxicity at 0.005 µM [4]: 33.7% | cytotoxicity at 0.045 µM [4]: 34.6% | cytotoxicity at 0.13 µM [4]: 35.2% | cytotoxicity at 0.41 µM [4]: 35.7% | cytotoxicity at 1.23 µM [4]: 35.4% | cytotoxicity at 3.7 µM [4]: 36% | cytotoxicity at 11.11 µM [4]: 37.9% | cytotoxicity at 33.33 µM [4]: 38.5% | cytotoxicity at 100 µM [4]: 38.9%

Nc1nnc(S(=O)(=O)NC(=O)c2ccccc2O)s1 [Compound 4d]
cytotoxicity at 72 h, 0.005 µM [1]: 37.3% | cytotoxicity at 72 h, 0.015 µM [1]: 38.3% | cytotoxicity at 72 h, 0.045 µM [1]: 39.4% | cytotoxicity at 72 h, 0.13 µM [1]: 40.5% | cytotoxicity at 72 h, 0.41 µM [1]: 42.1% | cytotoxicity at 72 h, 1.23 µM [1]: 42.4% | cytotoxicity at 72 h, 3.7 µM [1]: 44.6% | cytotoxicity at 72 h, 11.11 µM [1]: 47% | cytotoxicity at 72 h, 33.33 µM [1]: 47.6% | cytotoxicity at 72 h, 100 µM [1]: 48.1% | cytotoxicity at 0.005 µM [2]: 23.2% | cytotoxicity at 0.015 µM [2]: 24.2% | cytotoxicity at 0.045 µM [2]: 25.3% | cytotoxicity at 0.13 µM [2]: 26.2% | cytotoxicity at 0.41 µM [2]: 26.8% | cytotoxicity at 1.23 µM [2]: 27.1% | cytotoxicity at 3.7 µM [2]: 28.1% | cytotoxicity at 11.11 µM [2]: 29.4% | cytotoxicity at 33.33 µM [2]: 30.3% | cytotoxicity at 100 µM [2]: 32.1% | cytotoxicity at 72 h, 0.015 µM [3]: 35.1% | cytotoxicity at 0.005 µM [4]: 34.2% | cytotoxicity at 0.045 µM [4]: 35.2% | cytotoxicity at 0.13 µM [4]: 36.3% | cytotoxicity at 0.41 µM [4]: 37.3% | cytotoxicity at 1.23 µM [4]: 38% | cytotoxicity at 3.7 µM [4]: 38.3% | cytotoxicity at 11.11 µM [4]: 39.7% | cytotoxicity at 33.33 µM [4]: 42.1% | cytotoxicity at 100 µM [4]: 42.6%
